According to patent publication US7943786B2, “Process for preparing amorphous (4R-cis)-6-[2-[3-phenyl-4-(phenylcarbamoyl)-2-(4-fluorophenyl)-5-(1-methylethyl)-pyrrol-1-yl]-ethyl]-2,2-dimethyl-[1,3]-dioxane-4-yl-acetic acid” (priority 2003, dated 2011):

Legend:
Format in all cases: physicochemical
[1] = Comparison of solubility of amorphous and crystalline form in aprotic organic solvents; conditions: e.g. diisopropyl ether, methyl cyclohexane, isopropanol
[2] = Dissolution in tetrahydrofuran (clarity of solution)
Solubility in water = assay: Solubility in water

Row | solubility of amorphous versus crystalline form [1] | appearance of solution on dissolution in THF [2] | SMILES | solubility in water (Solubility in water)
1 | better soluble | perfectly clear solution | CC(C)c1c(C(=O)Nc2ccccc2)c(-c2ccccc2)c(-c2ccc(F)cc2)n1CC[C@@H]1C[C@H](CC(=O)OC(C)(C)C)OC(C)(C)O1 [amorphous compound of the formula I, (4R-cis)-6-[2-[3-phenyl-4-(phenylcarbamoyl)-2-(4-fluorophenyl)-5-(1-methylethyl)-pyrrol-1-yl]-ethyl]-2,2-dimethyl-[1,3]-dioxane-4-yl-acetic acid-tertiary butyl ester] | –
2 | – | some dimness appeared | CC(C)c1c(C(=O)Nc2ccccc2)c(-c2ccccc2)c(-c2ccc(F)cc2)n1CC[C@@H]1C[C@H](CC(=O)OC(C)(C)C)OC(C)(C)O1 [crystalline compound of the formula I, (4R-cis)-6-[2-[3-phenyl-4-(phenylcarbamoyl)-2-(4-fluorophenyl)-5-(1-methylethyl)-pyrrol-1-yl]-ethyl]-2,2-dimethyl-[1,3]-dioxane-4-yl-acetic acid-tertiary butyl ester] | –
3 | – | – | CC(C)c1c(C(=O)Nc2ccccc2)c(-c2ccccc2)c(-c2ccc(F)cc2)n1CC[C@@H]1C[C@H](CC(=O)OC(C)(C)C)OC(C)(C)O1 [compound of the formula I, (4R-cis)-6-[2-[3-phenyl-4-(phenylcarbamoyl)-2-(4-fluorophenyl)-5-(1-methylethyl)-pyrrol-1-yl]-ethyl]-2,2-dimethyl-[1,3]-dioxane-4-yl-acetic acid-tertiary butyl ester] | very poor solubility in water or is practically insoluble in water
